Experimental data from ChEMBL document CHEMBL5500378, “Discovery of 4-benzylpiperazinequinoline BChE inhibitor that suppresses neuroinflammation for the treatment of Alzheimer's disease” (Eur J Med Chem, 2024).
Active and inactive are the calls of the source. The calls are words filed in the database; no cut-off is given here.

Experiments:
Cholinesterase [1] = biological target: Cholinesterase (Equus caballus, UniProt P81908); assay: Inhibition of equine serum BChE using BTC as substrate incubated for 2 mins by Ellman's method; assay type: cell-free
[2] = Half life in Sprague-Dawley rat at 10 mg/kg, iv measured for 2880 mins by LC-MS/MS analysis; assay type: ADME, organism-based; details: in vivo, 48 h
[3] = MRT (infinity) in Sprague-Dawley rat at 10 mg/kg, IG measured for 2880 mins by LC-MS/MS analysis; assay type: ADME, organism-based; details: in vivo, po
[4] = Half life in plasma of ICR mouse at 10 mg/kg, IG measured at 10 to 240 mins by LC-MS/MS analysis; assay type: ADME, organism-based; details: in vivo, po, time 10-240 min
BV-2 [5] = assay: Inhibition of ROS production in Amyloid beta(1 to 42)-induced neuronal damage in mouse BV-2 cells assessed as decrease in green fluorescence intensity at 5 uM by microscopic analysis; assay type: functional, cell-based
[6] = Cmax in Sprague-Dawley rat at 10 mg/kg, iv measured for 2880 mins by LC-MS/MS analysis; assay type: ADME, organism-based; details: in vivo
Mus musculus [7] = assay: Anti-inflammatory activity in ICR mouse model assessed as reversal of LPS-induced body weight loss at 10 mg/kg, IG pretreated for 10 days followed by LPS treatment for 4 days; assay type: functional, organism-based; details: time 14.0 day
[8] = Toxicity in ICR mouse assessed as animal death administered orally; details: in vivo, po
[9] = Toxicity in ICR mouse assessed as abnormal behaviour administered orally; details: in vivo, po
Cholinesterase [10] = biological target: Cholinesterase (Homo sapiens, UniProt P06276); assay: Inhibition of human BChE using BTC as substrate incubated for 2 mins by Ellman's method
[11] = AUC (0 to t) in brain of ICR mouse at 10 mg/kg, IG measured at 10 to 240 mins by LC-MS/MS analysis; assay type: ADME, organism-based; details: po, time 10-240 min
[12] = Neurotoxicity against mouse BV-2 cells by MTT assay; assay type: toxicity, cell-based
BV-2 [13] = assay: Anti-inflammatory activity against mouse BV-2 cells assessed as decrease in LPS-induced IL-1beta level at 5 uM preincubated for 1 hr followed by LPS addition and incubated overnight by immunofluorescence based analysis; assay type: functional, cell-based
Mus musculus [14] = assay: Improvement of cognition in ICR mouse model of Amyloid beta(1 to 42)-induced cognitive impairment at 10 mg/kg, IG for 12 days by Moris water maze test; assay type: functional, organism-based; details: time 12.0 day
[15] = Tmax in brain of ICR mouse at 10 mg/kg, IG measured at 10 to 240 mins by LC-MS/MS analysis; assay type: ADME, organism-based; details: po, time 10-240 min
[16] = Half life in Sprague-Dawley rat at 10 mg/kg, IG measured for 2880 mins by LC-MS/MS analysis; assay type: ADME, organism-based; details: in vivo, po
[17] = Cmax in Sprague-Dawley rat at 10 mg/kg, IG measured for 2880 mins by LC-MS/MS analysis; assay type: ADME, organism-based; details: in vivo, po
Mus musculus [18] = assay: Improvement of learning ability in ICR mouse model of Amyloid beta(1 to 42)-induced cognitive impairment at 10 mg/kg, IG for 12 days by Moris water maze test; assay type: functional, organism-based; details: time 12.0 day
Mus musculus [19] = assay: Anti-inflammatory activity in ICR mouse model assessed as reduction in brain IL-1beta level at 10 mg/kg, IG pretreated for 10 days followed by LPS treatment for 4 days by ELISA; assay type: functional, organism-based; details: time 14.0 day
Mus musculus [20] = assay: Anti-inflammatory activity in ICR mouse model assessed as reduction in brain TNF-alpha level at 10 mg/kg, IG pretreated for 10 days followed by LPS treatment for 4 days by ELISA; assay type: functional, organism-based; details: time 14.0 day
[21] = Metabolic stability in human liver microsomes assessed as half life at 2 uM incubated for 60 mins by LC-MS/MS analysis; assay type: ADME, Microsome
L02 = assay: Cytotoxicity against human L02 cells by MTT assay; assay type: toxicity, cell-based

Cholinesterase (Homo sapiens, UniProt P06276), sequence (P06276 whole entry): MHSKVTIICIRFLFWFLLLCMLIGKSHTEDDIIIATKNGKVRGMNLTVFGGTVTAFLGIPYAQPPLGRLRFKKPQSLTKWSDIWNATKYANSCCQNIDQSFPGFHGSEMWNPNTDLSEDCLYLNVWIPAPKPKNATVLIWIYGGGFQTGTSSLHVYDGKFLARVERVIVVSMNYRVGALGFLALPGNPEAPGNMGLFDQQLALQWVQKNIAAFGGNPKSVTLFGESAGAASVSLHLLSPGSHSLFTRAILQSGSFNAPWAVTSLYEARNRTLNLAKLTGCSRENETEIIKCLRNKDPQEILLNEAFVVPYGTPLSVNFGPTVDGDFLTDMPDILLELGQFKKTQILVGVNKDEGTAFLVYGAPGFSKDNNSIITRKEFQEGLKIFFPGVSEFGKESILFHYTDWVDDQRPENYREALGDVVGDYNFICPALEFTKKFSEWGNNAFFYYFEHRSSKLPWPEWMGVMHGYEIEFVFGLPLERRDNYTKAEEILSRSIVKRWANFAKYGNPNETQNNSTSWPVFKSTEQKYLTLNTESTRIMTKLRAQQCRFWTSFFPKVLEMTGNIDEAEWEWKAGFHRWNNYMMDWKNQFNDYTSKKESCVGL
Cholinesterase (Equus caballus, UniProt P81908), sequence (P81908 whole entry): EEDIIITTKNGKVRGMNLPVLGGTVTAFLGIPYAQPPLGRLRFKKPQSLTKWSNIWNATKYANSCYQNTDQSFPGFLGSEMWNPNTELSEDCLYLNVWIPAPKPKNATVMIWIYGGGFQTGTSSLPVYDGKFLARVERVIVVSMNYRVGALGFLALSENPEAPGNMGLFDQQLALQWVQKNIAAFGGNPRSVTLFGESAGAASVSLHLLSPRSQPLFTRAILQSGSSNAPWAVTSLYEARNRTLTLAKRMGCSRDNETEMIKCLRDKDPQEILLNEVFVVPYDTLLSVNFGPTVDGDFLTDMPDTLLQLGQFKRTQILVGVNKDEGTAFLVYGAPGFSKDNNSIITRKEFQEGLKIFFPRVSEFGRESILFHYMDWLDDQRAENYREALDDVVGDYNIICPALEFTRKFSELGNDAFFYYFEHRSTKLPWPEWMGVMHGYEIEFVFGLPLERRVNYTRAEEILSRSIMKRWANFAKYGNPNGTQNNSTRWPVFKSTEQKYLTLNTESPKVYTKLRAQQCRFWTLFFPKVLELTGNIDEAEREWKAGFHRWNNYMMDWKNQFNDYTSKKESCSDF

Compound CCCc1ccc(C(=O)Nc2cnc3ccccc3c2N2CCN(Cc3ccccc3)CC2)cc1 has an IC50 (Cholinesterase [1]) of 0.06 µM, a t1/2 [2] of 5.047 h and an MRT inf [3] of 17.8 h. For the same compound, the t1/2 [4] was 1.09 h, the inhibition (BV-2 [5]) was “Active” and the Cmax [6] was 7120 ng/mL. The Activity (Mus musculus [7]) was “Active”, the Activity [8] was “Non-Toxic” and the Activity [9] was “Non-Toxic”. For the same compound, the IC50 (Cholinesterase [10]) was 0.16 µM, the AUC(0-t) [11] was 38300 ng·h/mL and the Activity [12] was “Not Active”. The Activity (BV-2 [13]) was “Active”, the Activity (Mus musculus [14]) was “Active” and the Tmax [15] was 0.367 h. For the same compound, the half-life [16] was 2.81 h, the Cmax [17] was 1380 ng/mL and the Activity (Mus musculus [18]) was “Active”. For the same compound, the Activity (Mus musculus [19]) was “Active”, the Activity (Mus musculus [20]) was “Active” and the half-life at 2 µM [21] was 0.762 h. The Activity (L02) was “Non-Toxic”.
